Data taken from patent US20200165291A1, “NEUROACTIVE STEROIDS, COMPOSITIONS, AND USES THEREOF” (Sage Therapeutics, Inc., priority 2014, published 2020).

Key:
[1] = molecular target: T1, recombinant α1β2γ2 GABAA receptors (Homo sapiens, UniProt P14867+P47870); test: Patch clamp electrophysiology, QPatch, LTK cells; format: cell-based; details: 10 μM test article, GABA EC20 = 2 μM, read-out: GABA (α1β2γ2) Qpatch in Ltk, % efficacy at 10 μM
T1 construct: expressed in transfected cells

[2] = molecular target: T2, recombinant α4β3δ GABAA receptors (Homo sapiens, UniProt P28472+P48169); test: Patch clamp electrophysiology, manual patch, CHO cells; format: cell-based; details: 10 μM test article, GABA EC20 = 2 μM, read-out: GABA (α4β3δ) Manual patch in CHO, % efficacy at 10 μM
T2 construct: expressed in transfected cells; host or cells: CHO cells (transient transfection, Lipofectamine)

[3] = test system: male Sprague Dawley rats; test: Loss of righting reflex in rats; format: in vivo; details: Rat IV, 5 mpk
Method: Loss of Righting Reflex in Rats
The plasma pharmacokinetics and a qualitative assessment of sedation were obtained in male Sprague Dawley rats according to the following procedure. Rats were dosed by intravenous bolus dose (60 seconds) via the foot dorsal vein at doses ranging from 5 to 15 mg/kg in an appropriate vehicle. In order to assess sedation, rats were gently restrained by hand to a lateral position for dose administration. […] If the animal was unable to return to an upright position, the time was recorded as the onset of loss of righting reflex (LRR). […] Sluggish or incomplete righting twice consecutively within a 30 second interval qualifies as a loss of righting reflex. After onset of LRR, animals were assessed every 5 minutes in the same manner. Recovery of righting reflex is defined as the ability of a rat to right itself completely within 20 seconds of being placed in dorsal recumbency. The duration of LRR is defined as the time interval between LRR and the return of righting reflex.

[4] = test system: PTZ-treated male CD-1 mice; test: Acute PTZ (pentylenetetrazol-induced seizure) method in mice; format: in vivo; details: Mus musculus, PO (oral administration), latency to tonic seizures, read-out: Anticonvulsive Effect Dose (minimal effective anticonvulsant dose)
Method: The anticonvulsant effect of test compounds were assessed in the pentylenetetazol-induced seizure assay in mice similar to methods described in Giardina & Gasior (2009) Curr Protoc Pharmacol., Chapter 5. Male CD-1 mice were housed in groups of five under controlled conditions (temperature of 22±2° C. and 12:12 light-dark cycle, lights on at 8:00 am) and water and food were available ad libitum. The mice were housed for 1 week prior to behavioral testing, at which time they weighed 25-35 g. Pentylenetetrazol (PTZ, Sigma) was dissolved in sterile 0.9% saline at a concentration of 12 mg/mL concentration for subcutaneous administration. Test compounds were formulated and administered via oral gavage or intraperitoneal injection at a predetermined time-point (typically 30 or 60 minutes) prior to PTZ injection. All solutions were made fresh and were given in a volume of 10 ml/kg body weight.
Mice were acclimated to the test room for at least 30 min before compound administration. Mice were randomized into at least four test groups (vehicle and at least three doses of the test compound) with 10 mice per group. […] Following the drug pretreatment time the mice were injected s.c. with PTZ (120 mg/kg). Immediately following the PTZ injection, mice were individually placed into observation chambers (25×15×15 cm) and a three-channel timer was started. Each mouse was continuously observed for 30 min and the following behaviors were recorded by observers blinded to the treatments: 1) latency to clonic convulsions that persist for 3 sec and followed by an absence of righting reflex 2) latency to tonic convulsions, characterized by the rigid extension of all four limbs that exceeded a 90 degree angle with the body 3) latency to death 4) number of clonic and tonic convulsions. Data are presented as mean±S.E.M and one-way analysis of variance with Dunnett's or Bonferroni's post-hoc test was used to detect significant differences in latency and number between the vehicle and dose group. p values<0.05 were regarded as statistically significant.

[5] = molecular target: [35S]-TBPS binding, rat brain cortical membranes (GABA receptor complex); test: [35S]-TBPS binding (steroid inhibition of TBPS binding); details: in the presence of 5 μM GABA, read-out: 35S-TBPS Radioligand Displacement
Method: [35S]-t-Butylbicyclophosphorothionate (TBPS) binding assays using rat brain cortical membranes in the presence of 5 μM GABA has been described (Gee et al, J. Pharmacol. Exp. Ther. 1987, 241, 346-353; Hawkinson et al, Mol. Pharmacol. 1994, 46, 977-985; Lewin, A. H et al., Mol. Pharmacol. 1989, 35, 189-194).
Briefly, cortices are rapidly removed following decapitation of carbon dioxide-anesthetized Sprague-Dawley rats (200-250 g). The cortices are homogenized in 10 volumes of ice-cold 0.32 M sucrose using a glass/teflon homogenizer and centrifuged at 1500×g for 10 min at 4° C. The resultant supernatants are centrifuged at 10,000×g for 20 min at 4° C. to obtain the P2 pellets. The P2 pellets are resuspended in 200 mM NaCl/50 mM Na-K phosphate pH 7.4 buffer and centrifuged at 10,000×g for 10 min at 4° C. This washing procedure is repeated twice and the pellets are resuspended in 10 volumes of buffer. Aliquots (100 μL) of the membrane suspensions are incubated with 3 nM [^35S]-TBPS and 5 μL aliquots of test drug dissolved in dimethyl sulfoxide (DMSO) (final 0.5%) in the presence of 5 μM GABA. The incubation is brought to a final volume of 1.0 mL with buffer. Nonspecific binding is determined in the presence of 2 μM unlabeled TBPS and ranged from 15 to 25%. Following a 90 min incubation at room temp, the assays are terminated by filtration through glass fiber filters (Schleicher and Schuell No. 32) using a cell harvester (Brandel) and rinsed three times with ice-cold buffer. Filter bound radioactivity is measured by liquid scintillation spectrometry. Non-linear curve fitting of the overall data for each drug averaged for each concentration is done using Prism (GraphPad). […] The concentration of test compound producing 50% inhibition (IC50) of specific binding and the maximal extent of inhibition (Imax) are determined for the individual experiments with the same model used for the overall data and then the means±SEM.s of the individual experiments are calculated.
Various compounds are or can be screened to determine their potential as modulators of [^35S]-TBPS binding in vitro. These assays are or can be performed in accordance with the above discussed procedures.

T2 sequence (P48169 36-554): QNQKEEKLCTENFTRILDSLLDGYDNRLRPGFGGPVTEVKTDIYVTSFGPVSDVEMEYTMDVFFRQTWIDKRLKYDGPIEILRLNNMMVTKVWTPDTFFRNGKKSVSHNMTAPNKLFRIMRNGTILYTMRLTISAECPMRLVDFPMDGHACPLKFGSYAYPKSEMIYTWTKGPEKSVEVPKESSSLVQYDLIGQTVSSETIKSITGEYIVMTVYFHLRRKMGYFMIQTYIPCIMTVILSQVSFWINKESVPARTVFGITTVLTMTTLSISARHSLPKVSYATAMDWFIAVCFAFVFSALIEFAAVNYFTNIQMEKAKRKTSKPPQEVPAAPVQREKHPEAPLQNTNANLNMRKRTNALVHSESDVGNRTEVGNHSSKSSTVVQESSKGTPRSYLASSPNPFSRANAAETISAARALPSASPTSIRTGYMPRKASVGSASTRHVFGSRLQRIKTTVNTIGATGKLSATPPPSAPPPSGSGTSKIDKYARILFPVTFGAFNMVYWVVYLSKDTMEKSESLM
T2 sequence (P28472 26-473): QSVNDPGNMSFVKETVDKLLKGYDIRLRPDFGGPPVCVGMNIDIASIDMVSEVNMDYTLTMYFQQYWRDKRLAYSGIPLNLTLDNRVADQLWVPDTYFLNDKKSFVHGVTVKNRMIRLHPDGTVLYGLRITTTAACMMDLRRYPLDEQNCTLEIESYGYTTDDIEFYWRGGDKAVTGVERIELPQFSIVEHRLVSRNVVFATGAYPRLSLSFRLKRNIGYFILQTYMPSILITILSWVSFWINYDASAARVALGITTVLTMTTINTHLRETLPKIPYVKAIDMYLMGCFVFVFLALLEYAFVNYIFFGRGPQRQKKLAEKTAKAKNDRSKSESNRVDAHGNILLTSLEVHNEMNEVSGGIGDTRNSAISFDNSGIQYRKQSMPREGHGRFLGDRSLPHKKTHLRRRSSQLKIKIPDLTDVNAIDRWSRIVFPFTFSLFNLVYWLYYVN
T2 sequence (O14764 17-452 partner limits assumed): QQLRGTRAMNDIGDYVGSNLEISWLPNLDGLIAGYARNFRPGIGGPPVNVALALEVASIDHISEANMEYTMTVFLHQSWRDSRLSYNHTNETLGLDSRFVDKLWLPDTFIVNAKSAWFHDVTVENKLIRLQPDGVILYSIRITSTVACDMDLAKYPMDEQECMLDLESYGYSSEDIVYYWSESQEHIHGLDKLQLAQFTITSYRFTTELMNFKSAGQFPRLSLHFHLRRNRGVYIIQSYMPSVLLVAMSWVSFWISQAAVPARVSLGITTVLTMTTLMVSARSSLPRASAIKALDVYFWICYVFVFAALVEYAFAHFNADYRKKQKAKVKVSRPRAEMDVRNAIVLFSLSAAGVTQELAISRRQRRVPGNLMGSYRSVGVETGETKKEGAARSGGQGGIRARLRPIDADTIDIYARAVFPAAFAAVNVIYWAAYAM
T1 sequence (P14867 28-456): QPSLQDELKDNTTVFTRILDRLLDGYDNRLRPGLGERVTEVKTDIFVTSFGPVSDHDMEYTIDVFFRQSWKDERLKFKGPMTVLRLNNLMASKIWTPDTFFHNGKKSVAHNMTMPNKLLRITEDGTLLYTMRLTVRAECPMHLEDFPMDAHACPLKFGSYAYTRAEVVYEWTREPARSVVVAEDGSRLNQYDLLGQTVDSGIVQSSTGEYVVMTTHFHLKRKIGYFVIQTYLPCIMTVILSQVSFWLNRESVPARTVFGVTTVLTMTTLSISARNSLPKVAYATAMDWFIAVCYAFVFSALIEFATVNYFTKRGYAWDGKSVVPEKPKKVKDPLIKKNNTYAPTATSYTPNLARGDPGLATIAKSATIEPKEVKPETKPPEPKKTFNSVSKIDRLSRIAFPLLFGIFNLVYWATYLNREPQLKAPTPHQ
T1 sequence (P47870 25-512 limits assumed): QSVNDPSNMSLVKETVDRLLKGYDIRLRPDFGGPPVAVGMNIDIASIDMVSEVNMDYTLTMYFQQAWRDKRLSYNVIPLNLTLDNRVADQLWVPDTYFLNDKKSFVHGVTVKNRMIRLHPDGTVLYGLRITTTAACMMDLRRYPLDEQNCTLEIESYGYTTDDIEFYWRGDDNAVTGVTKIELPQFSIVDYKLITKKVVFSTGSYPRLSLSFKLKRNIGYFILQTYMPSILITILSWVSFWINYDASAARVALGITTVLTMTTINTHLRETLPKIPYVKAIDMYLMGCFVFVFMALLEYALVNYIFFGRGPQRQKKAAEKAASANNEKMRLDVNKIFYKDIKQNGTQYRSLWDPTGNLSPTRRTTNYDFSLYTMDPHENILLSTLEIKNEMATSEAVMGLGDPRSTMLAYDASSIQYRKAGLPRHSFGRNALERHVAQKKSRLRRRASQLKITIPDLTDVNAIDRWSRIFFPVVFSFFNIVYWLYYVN
T1 sequence (P18507 40-475 partner): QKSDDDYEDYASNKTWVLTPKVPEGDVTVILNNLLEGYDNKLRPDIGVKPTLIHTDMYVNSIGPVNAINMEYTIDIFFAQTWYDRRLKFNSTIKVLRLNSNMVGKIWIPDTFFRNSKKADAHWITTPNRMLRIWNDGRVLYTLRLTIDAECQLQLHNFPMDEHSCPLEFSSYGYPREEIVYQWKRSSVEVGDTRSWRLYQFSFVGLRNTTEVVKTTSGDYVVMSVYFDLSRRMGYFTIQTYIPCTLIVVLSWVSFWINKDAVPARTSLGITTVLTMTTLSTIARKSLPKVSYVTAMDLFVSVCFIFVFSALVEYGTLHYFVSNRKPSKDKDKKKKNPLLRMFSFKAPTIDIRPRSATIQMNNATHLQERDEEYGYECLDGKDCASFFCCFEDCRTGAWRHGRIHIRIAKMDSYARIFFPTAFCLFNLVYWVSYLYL

Row | SMILES | Emax at 10 µM [1] [%] | Emax at 10 µM [2] [%] | Duration of Rat LRR [3] | minimal effective dose [4] [mg/kg] | IC50 [5] [nM]
1 | Cc1nnn(CC(=O)[C@H]2CC[C@H]3[C@@H]4C[C@@H](F)[C@H]5C[C@](C)(O)CC[C@@H]5[C@H]4CC[C@]23C)n1 [SV-5] | 100 to 500 | 100 to 500 | B (B > 20 min) | ≤ 1 | –
2 | C[C@@]1(O)CC[C@@H]2[C@H]3CC[C@]4(C)[C@@H](C(=O)Cn5nccn5)CC[C@H]4[C@@H]3C[C@@H](F)[C@H]2C1 [SV-2] | 100 to 500 | 100 to 500 | B (B > 20 min) | ≤ 1 | 50 to 100
3 | Cc1nnn(CC(=O)[C@H]2CC[C@H]3[C@@H]4CC[C@@H]5C[C@@](O)(CF)CC[C@@H]5[C@H]4CC[C@]23C)n1 [SF-3] | 100 to 500 | 100 to 500 | A (A ≤ 20 min) | ≤ 1 | –
4 | Cc1nnn(CC(=O)[C@H]2CC[C@H]3[C@@H]4CC[C@@H]5C[C@](C)(O)CC[C@@H]5[C@H]4CC[C@]23C)n1 [SA-7] | > 500 | > 500 | B (B > 20 min) | ≤ 1 | 1 to 50
5 | Cc1cnn(CC(=O)[C@H]2CC[C@H]3[C@@H]4CC[C@@H]5C[C@](C)(O)CC[C@@H]5[C@H]4CC[C@]23C)n1 [SA-3] | 100 to 500 | > 500 | B (B > 20 min) | – | 1 to 50
6 | Cc1nnn(CC(=O)[C@H]2CC[C@H]3[C@@H]4CC[C@H]5C[C@](C)(O)CC[C@@H]5[C@H]4CC[C@]23C)n1 [SB-5] | 100 to 500 | > 500 | B (B > 20 min) | ≤ 1 | –
7 | COC[C@@]1(O)CC[C@H]2[C@@H](CC[C@@H]3[C@@H]2CC[C@]2(C)[C@@H](C(=O)Cn4nnc(C)n4)CC[C@@H]32)C1 [SI-4] | 100 to 500 | 100 to 500 | B (B > 20 min) | ≤ 1 | –
